Measured values published in patent US20230340020A1, “PEPTIDE LIGANDS FOR BINDING TO MT1-MMP” (priority 2016, published 2023).
Starred links: 1 amine or outer side, 2 acyl side, 3 side chain; linkers in the order of their positions; H or OH if unused. Positions of bridges follow the written chain, without caps; N, C: chain ends. Non-standard residues stand in square brackets, D forms with d. Residues, ends and D or L forms follow the SMILES beside them. 1Nal = N[C@@H](Cc1cccc2ccccc12)C(=O)O; TBMB = c1c(C[*:1])cc(C[*:3])cc1C[*:2]; Tle = CC(C)(C)[C@H](N)C(=O)O; βAla = NCCC(=O)O; Sar = CNCC(=O)O

Columns and labels:
[1] = system: MT1-MMP; assay: Species cross-reactivity with MT1-MMP; assay type: binding; settings: murine, dog, cynomolgus and human MT1-MMP
[2] = biological target: T1, MT1-MMP hemopexin domain (Homo sapiens, UniProt P50281); assay: Fluorescence polarisation competition binding to MT1-MMP hemopexin domain; settings: read-out: Binding Affinity Ki(h)
T1 construct: residues Cys319-Gly511 from the human gene; His6 (N); made in house; host or cells: HEK293 (transient, pEXPR-IBA42 vector)
Description: The MT1-MMP hemopexin-like repeats (also known as the MT1-MMP hemopexin domain), residues Cys319-Gly511 from the human gene, were transiently expressed in HEK293 cells as secreted N-terminally His6-tagged soluble protein, using the pEXPR-IBA42 (IBA) expression vector. Following expression, the protein was purified by Nickel-NTA affinity chromatography followed by gel filtration, and purity was checked by SDS-PAGE. Batch to batch variability was also monitored by fluorescence thermal shift experiments in the presence/absence of a hemopexin domain binding bicycle.
Binding affinity was measured using competition assays using Fluorescence Polarisation (anisotropy). […]
Here, a pre-formed complex of PEX with the fluorescent PEX-binding tracer is titrated with free, non-fluoresceinated bicyclic peptide. […] Dissociation of the complex can be measured quantitatively, and the Kd of the competitor (titrant) to the target protein determined. The advantage of the competition method is that the affinities of non-fluoresceinated bicyclic peptides can be determined accurately and rapidly.
Subsequently, the non-fluorescent competitor bicyclic peptide (usually just the bicycle core sequence) is titrated, such that it displaces the fluorescent tracer from the target protein. The displacement of the tracer is measured and associated with a drop in fluorescence polarisation. […]

[3] = Plasma stability in mouse serum; assay type: in vitro ADME; settings: 4 μM concentration
Description: (§1) The stability appears to be slightly greater than that of the corresponding conjugates in which the peptide is linked to the scaffold by three thioether linkages.

[4] = Plasma stability in human serum; assay type: in vitro ADME; settings: 4 μm concentration
Description: as §1

[5] = Tolerability in HT1080 tumor-bearing mice; settings: mouse, in vivo; biw dosing, up to 14 days, BALB/c nude mice; read-out: tolerated dose
Method: BALB/c nude mice were inoculated subcutaneously at the right flank with HT1080 tumor cells […] in 0.2 ml of PBS for tumor development. 39 animals were randomized when the average tumor volume reached […].
The BDC compounds were formulated at 0.03 mg/ml in a vehicle buffer containing 25 mM histidine and 10% Sucrose. The formulations were administered twice weekly (biw) at 0.3, 1, 3 and 10 mg/kg. Tumor volume and body weight were measured up to 14 days from the first dosing.

In the case of “17-69-07-N268: stabilised derivative of 17-69-07; Dap homologues have SEQ ID 17 (ACANEAACEDFYDGC; non-natural residues D-Ala, 1Nal, tBuGly, Dap; bicycle; VARIANT 2 /replace="Dap" or "N-AlkDap" or "N-HAlkDap"; MOD_RES 3 D-amino acid; MOD_RES 6 Fmoc-L-1-Naphthylalanine; MOD_RES 7 D-amino acid; VARIANT 8 /replace="Dap" or "N-AlkDap" or "N-HAlkDap"; MOD_RES 14 Fmoc-alpha-tert-butylglycine; VARIANT 15 /replace="Dap" or "N-AlkDap" or "N-HAlkDap"; MISC_FEATURE - /note="Variant residues given in the sequence have nopreference with respect to those in the a)”, the “cross-reactivity with MT1-MMP of other species” value [1] is reported as “fully cross reactive”.

For `C[C@H](NC(=O)CN(C)C(=O)CN(C)C(=O)CN(C)C(=O)CN(C)C(=O)CN(C)C(=O)CN(C)C(=O)CN(C)C(=O)CN(C)C(=O)CN(C)C(=O)CN(C)C(=O)CCN)C(=O)N[C@H]1CSCc2cc3cc(c2)CSC[C@H](NC(=O)[C@@H](C)NC(=O)[C@H](Cc2cccc4ccccc24)NC(=O)[C@H](CCC(=O)O)NC(=O)[C@H](CC(N)=O)NC(=O)[C@@H](C)NC1=O)C(=O)N[C@@H](CCC(=O)O)C(=O)N[C@@H](CC(=O)O)C(=O)N[C@@H](Cc1ccccc1)C(=O)N[C@@H](Cc1ccc(O)cc1)C(=O)N[C@@H](CC(=O)O)C(=O)N[C@@H](C(C)(C)C)C(=O)N[C@H](C(N)=O)CSC3` [17-69-07-N241, H-(β-Ala)-Sar10-Ala-Cys-(D-Ala)-Asn-Glu-(1Nal)-(D-Ala)-Cys-Glu-Asp-Phe-Tyr-Asp-(tBuGly)-Cys-NH2] (H-[βAla][Sar][Sar][Sar][Sar][Sar][Sar][Sar][Sar][Sar][Sar]AC[dA]NE[1Nal][dA]CEDFYD[Tle]C-NH2; linker 13-19-26 via TBMB), the “cross-reactivity with MT1-MMP of other species” value [1] was “fully cross reactive”.

`CC(=O)N[C@@H](C)C(=O)N[C@H]1CN(C)Cc2cc3cc(c2)CN(C)C[C@@H](C(N)=O)NC(=O)[C@H](C(C)(C)C)NC(=O)[C@H](CC(=O)O)NC(=O)[C@H](Cc2ccc(O)cc2)NC(=O)[C@H](Cc2ccccc2)NC(=O)[C@H](CC(=O)O)NC(=O)[C@H](CCC(=O)O)NC(=O)[C@H](CSC3)NC(=O)[C@@H](C)NC(=O)[C@H](Cc2cccc3ccccc23)NC(=O)[C@H](CCC(=O)O)NC(=O)[C@H](CC(N)=O)NC(=O)[C@@H](C)NC1=O` [17-69-07-N479, Ac-A(Dap(Me))(D-Ala)NE(1Nal)(D-Ala)CEDFYD(tBuGly)(Dap(Me))] gave a Ki [2] of 0.0156 µM.

For `CC[C@H](C)[C@@H]([C@@H](CC(=O)N1CCC[C@H]1[C@H](OC)[C@@H](C)C(=O)N[C@H](C)[C@@H](O)c1ccccc1)OC)N(C)C(=O)[C@@H](NC(=O)[C@H](C(C)C)N(C)C(=O)OCc1ccc(NC(=O)[C@H](CCCNC(N)=O)NC(=O)[C@@H](NC(=O)Cn2cc(CCC(=O)NCCC(=O)N(C)CC(=O)N(C)CC(=O)N(C)CC(=O)N(C)CC(=O)N(C)CC(=O)N(C)CC(=O)N(C)CC(=O)N(C)CC(=O)N(C)CC(=O)N(C)CC(=O)N[C@@H](C)C(=O)N[C@H]3CNCc4cc5cc(c4)CSC[C@H](NC(=O)[C@@H](C)NC(=O)[C@H](Cc4cccc6ccccc46)NC(=O)[C@H](CCC(=O)O)NC(=O)[C@H](CC(N)=O)NC(=O)[C@@H](C)NC3=O)C(=O)N[C@@H](CCC(=O)O)C(=O)N[C@@H](CC(=O)O)C(=O)N[C@@H](Cc3ccccc3)C(=O)N[C@@H](Cc3ccc(O)cc3)C(=O)N[C@@H](CC(=O)O)C(=O)N[C@@H](C(C)(C)C)C(=O)N[C@H](C(N)=O)CNC5)nn2)C(C)C)cc1)C(C)C` [BT17BDC-53], the “T1/2 in mouse serum” value [3] was “greater than 50 hours” and the “T1/2 in human serum” value [4] was “greater than 50 hours”.

Compound `CC[C@H](C)[C@@H]([C@@H](CC(=O)N1CCC[C@H]1[C@H](OC)[C@@H](C)C(=O)N[C@H](C)[C@@H](O)c1ccccc1)OC)N(C)C(=O)[C@@H](NC(=O)[C@H](C(C)C)N(C)C(=O)OCc1ccc(NC(=O)[C@H](CCCNC(N)=O)NC(=O)[C@@H](NC(=O)Cn2cc(CCC(=O)N[C@@H](C)C(=O)N[C@H]3CN(C)Cc4cc5cc(c4)CN(C)C[C@@H](C(N)=O)NC(=O)[C@H](C(C)(C)C)NC(=O)[C@H](CC(=O)O)NC(=O)[C@H](Cc4ccc(O)cc4)NC(=O)[C@H](Cc4ccccc4)NC(=O)[C@H](CC(=O)O)NC(=O)[C@H](CCC(=O)O)NC(=O)[C@H](CSC5)NC(=O)[C@@H](C)NC(=O)[C@H](Cc4cccc5ccccc45)NC(=O)[C@H](CCC(=O)O)NC(=O)[C@H](CC(N)=O)NC(=O)[C@@H](C)NC3=O)nn2)C(C)C)cc1)C(C)C` [BT17BDC-62] has an MTD [5] of ~5 mg/kg.
